From the supplement of paper PMC10307832

Key:
Test in all cases: relative viability (nuclei count vs DMSO), 5 days (fraction); higher = more cells survive
[1] = compound: Cc1ccc(F)c(NC(=O)Nc2ccc(-c3cccc4[nH]nc(N)c34)cc2)c1 [Linifanib] + O=C(CCCCCCC(=O)Nc1ccccc1)NO [Vorinostat] (partner 1 µM)
How it was run: (§1)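 Dosing by pin tool came one day after lung cancer cell lines were seeded in 1536-well plates, using either one drug or a fixed anchor-drug dose plus five library-drug doses (not always all listed) in √10 steps. After 5 days, nuclei were counted on 4× images. Relative viability is treated-well nuclei count divided by vehicle-well nuclei count, and values are medians of duplicate plates.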

[2] = compound: Cc1ccc(F)c(NC(=O)Nc2ccc(-c3cccc4[nH]nc(N)c34)cc2)c1 [Linifanib] + O=C(c1cc(Cc2n[nH]c(=O)c3ccccc23)ccc1F)N1CCN(C(=O)C2CC2)CC1 [Olaparib] (partner 8 µM)
How it was run: as §1

[3] = compound: Cc1ccc(F)c(NC(=O)Nc2ccc(-c3cccc4[nH]nc(N)c34)cc2)c1 [Linifanib] + CC1(C)CCC(c2ccc(Cl)cc2)=C(CN2CCN(c3ccc(C(=O)NS(=O)(=O)c4ccc(N[C@H](CCN5CCOCC5)CSc5ccccc5)c(S(=O)(=O)C(F)(F)F)c4)cc3)CC2)C1 [Navitoclax] (partner 0.5 µM)
How it was run: as §1

[4] = compound: Cc1ccc(F)c(NC(=O)Nc2ccc(-c3cccc4[nH]nc(N)c34)cc2)c1 [Linifanib] + NC(=O)Nc1cc(-c2cccc(F)c2)sc1C(=O)N[C@H]1CCCNC1 [AZD7762] (partner 0.2 µM)
How it was run: as §1

[5] = compound: Cc1ccc(F)c(NC(=O)Nc2ccc(-c3cccc4[nH]nc(N)c34)cc2)c1 [Linifanib] + Nc1ncn([C@H]2C[C@H](O)[C@@H](CO)O2)c(=O)n1 [Decitabine] (partner 2 µM)
How it was run: as §1

[6] = compound: Cc1ccc(F)c(NC(=O)Nc2ccc(-c3cccc4[nH]nc(N)c34)cc2)c1 [Linifanib] + CC(C)C[C@H](NC(=O)[C@H](Cc1ccccc1)NC(=O)c1cnccn1)B(O)O [Bortezomib] (partner 0.002 µM)
How it was run: as §1

Cell Line	relative viability ([1]; first compound 0.03162 µM)	relative viability ([1]; first compound 0.1 µM)	relative viability ([1]; first compound 0.3162 µM)	relative viability ([2]; first compound 0.03162 µM)	relative viability ([2]; first compound 0.1 µM)	relative viability ([2]; first compound 0.3162 µM)	relative viability ([3]; first compound 0.03162 µM)	relative viability ([3]; first compound 0.1 µM)	relative viability ([3]; first compound 0.3162 µM)	relative viability ([4]; first compound 0.03162 µM)	relative viability ([4]; first compound 0.1 µM)	relative viability ([4]; first compound 0.3162 µM)	relative viability ([5]; first compound 0.03162 µM)	relative viability ([5]; first compound 0.1 µM)	relative viability ([5]; first compound 0.3162 µM)	relative viability ([6]; first compound 0.03162 µM)	relative viability ([6]; first compound 0.1 µM)	relative viability ([6]; first compound 0.3162 µM)
LK-2	0.286	0.529	0.283	0.694	0.759	0.732	0.791	1.03	0.704	0.618	0.504	0.376	0.305	0.365	0.224			
NCI-H358	0.72	0.723	0.803	0.521	0.771	0.55				0.667	0.495	0.574	0.231	0.218	0.213			
NCI-H520	0.669	0.769	0.643	0.286	0.32	0.36	1.02	1.1	1.05				0.461	0.6	0.542	0.773	1.07	0.497
NCI-H650	0.513	0.409	0.358	0.348	0.397	0.361				0.947	0.99	0.675	0.371	0.355	0.312	0.816	0.814	0.864
NCI-H661	0.792	0.751	0.75	0.771	0.783	0.7							0.559	0.626	0.582	0.88	0.915	0.645
NCI-H1395	0.824	0.71	0.633	0.462	0.463	0.461	1.19	1.17	1.21	0.39	0.431	0.395	0.725	0.753	0.698			
NCI-H1650	0.528	0.602	0.655	0.78	0.971	0.753	0.998	1.35	1.21				0.482	0.407	0.37	0.216	0.212	0.199
NCI-H1792				0.337	0.532	0.375	0.692	0.621	0.639	0.789	0.757	0.588	0.525	0.643	0.464	0.93	0.975	0.937
NCI-H1793	0.777	0.796	0.745	0.848	1.13	0.802	0.553	0.429	0.444	0.269	0.844	0.541	0.486	0.412	0.586			
NCI-H1944	0.73	0.599	0.657	0.42	0.434	0.367	1.05	1.05	0.98	0.43	0.65	0.479	0.425	0.449	0.415			
NCI-H2009	0.695	0.781	0.743	0.675	0.705	0.671	1.13	1.14	1.13				0.371	0.41	0.378	1.25	1.05	0.963
NCI-H2023	0.655	0.807	0.612	0.518	0.615	0.46	0.929	1.07	0.981				0.228	0.228	0.203	1.03	1.28	0.975
NCI-H2170	0.806	0.814	0.823	0.612	0.701	0.566	0.557	0.616	0.448	0.831	0.954	0.843	0.472	0.448	0.453			
NCI-H2228	0.794	0.808	0.603	0.58	1.08	0.621	0.994	1.01	0.8							0.815	1.32	0.959
SK-LU-1	0.74	0.749	0.828	0.467	0.558	0.456	0.783	0.893	0.791				0.672	0.645	0.669	1.11	1.2	1.19
SK-MES-1	1.13	1.05	1.05	0.636	0.795	0.71	1.18	1.25	1.04				0.352	0.408	0.36			
SW 1573	0.909	0.93	0.594	0.463	0.498	0.505	1.03	1.28	0.897				0.514	0.604	0.584	0.972	1.04	1.08
UMC-11	0.334	0.315	0.354	0.388	0.485	0.374	0.304	0.41	0.366				0.585	0.562	0.581	0.961	0.731	0.668
